Assay results: patent US20040023884A1, “Biologically active peptides from functional domains of bactericidal/permeability-increasing protein and uses thereof” (priority 1993, published 2004)
pKd: −log10 of the molar value.

Columns and labels:
E. coli 0113 LPS = experiment: Limulus Amoebocyte Lysate (LAL) inhibition assay; assay type: biochemical; conditions: alanine variant relative to BPI.2
In short: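 BPI proteolytic fragments incubated with E. coli 0113 LPS (4 ng/mL final) for 3 h at 37 °C, then diluted in D-PBS to 200 pg/mL LPS for chromogenic LAL. Lysate 25 min, substrate 20–30 min at room temperature, acetic acid stop; OD405 expressed as percent LPS inhibition.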

[1] = system: E. coli 0111:B4 (smooth) bacteria; experiment: Radial diffusion bactericidal assay, E. coli 0111:B4; assay type: cell-based; conditions: radial diffusion; PROBIT analysis; E. coli O111:B4 (smooth)
E. coli O86a:K61 = experiment: Radial diffusion bactericidal assay, E. coli O86a:K61; assay type: cell-based; conditions: FIG. 11i
[2] = 3H-heparin binding assay (affinity and capacity); conditions: for Heparin Capacity: heparin bound at saturation; for pKd: read-out: Heparin Affinity
In short: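 Peptide fragments were bound to PVDF-membrane wells and incubated with 3H-heparin in blocking buffer for 1 h at 4 °C. After washing, bound radioactivity was quantified by liquid scintillation counting, with BSA background subtracted; rBPI23 served as positive control.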

[3] = system: rough mutant E. coli J5 bacteria; experiment: Radial diffusion bactericidal assay, E. coli J5; assay type: cell-based; conditions: radial diffusion; PROBIT analysis; E. coli J5 (rough)
In short: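 Wells received 5 or 10 μL of BPI fragment, pre-incubated 3 h at 37 °C. The underlayer agarose carried washed log-phase organisms at 4×10^6 CFU/mL.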

Staphylococcus aureus = experiment: Radial diffusion bactericidal assay, Staphylococcus aureus; assay type: cell-based; conditions: radial diffusion; PROBIT analysis; S. aureus
[4] = system: endotoxin (e.g. E. coli 01:B4); experiment: Mouse experimental endotoxemia model; parameters: species or system mice; conditions: in vivo
Procedure: BPI functional domain peptides are tested for their efficacy in a mouse experimental endotoxemia model. Groups of at least 15 mice are administered an intravenous injection of endotoxin (e.g. E. coli 01:B4, Sigma Chemical Co., St. Louis, Mo.) at a LD90 dosage (e.g., 40 mg/kg). This is followed by a second intravenous injection of the test peptide in varying concentrations from about 0.1 mg/kg to about 100 mg/kg, preferably in the range of about 1 to 50 mg/kg. Injections of buffer without added peptide are used in negative control mice. The animals are observed for 7 days and mortality recorded. The efficacy of the peptides of this invention is measured by a decrease in endotoxemia-associated mortality in peptide-injected mice as compared with control mice.

Row | Sequence | LAL (relative difference) (E. coli 0113 LPS) | pmol added to well to achieve a 30 mm^2 bactericidal zone, E. coli O111:B4 [1] | bactericidal activity (in words) (E. coli O86a:K61) | Heparin Capacity [2] | pKd [2] | pmol added to well to achieve a 30 mm^2 bactericidal zone, E. coli J5 [3] | pmol added to well to achieve a 30 mm^2 bactericidal zone, S. aureus (Staphylococcus aureus) | activity in the murine endotoxemia model (in words) [4]
1 | IKISGKWKAAKRFLK [BPI.23] | = (no difference in the LAL assay) | 14,445.00 pmol | showed bactericidal activity | 285.0 ng | 6.16 | 1,330.40 pmol | – | –
2 | KWKAQFRFLKKSKVGWLILLFHKK [BPI.102] | – | 697,655.78 pmol | – | 535.2 ng | 5.34 | 13,814.12 pmol | b (no detectable activity up to 5 μg/well) | active in this murine model
